Literature values in patent US20060182729A1, “Combat/training antioxidant micronutrient formulation and method of administration” (priority 2005, published 2006).

Legend:
[1] = oral supplementation, human subjects
[2] = tested on: mutagens in the small intestine; settings: supplementation

| plasma levels of glutathione [1] | Structure (SMILES) | formation of mutagens in the small intestine [2] |
| --- | --- | --- |
| failed to significantly increase | N[C@@H](CCC(=O)N[C@@H](CS)C(=O)NCC(=O)O)C(=O)O [glutathione] | – |
| – | O=C1O[C@H]([C@@H](O)CO)C(O)=C1O [vitamin C, ascorbic acid] | reduces |
